Entries after “also recorded” stand apart in the source; their conditions may differ. Where a SMILES comes first, the peptide text is derived from it. Where no end group is shown, it is not given here.
How the values were obtained:
DPP4 = conditions: cited from earlier work
ACE = conditions: cited from earlier work
[1] = target: T1, recombinant human dipeptidyl peptidase-IV (DPP4) (Homo sapiens, UniProt P27487); test: DPP4 inhibitory activity and IC50 (GP-pNA substrate, absorbance of pNA at 405 nm); type: biochemical; conditions: for IC50: synthetic peptides; for inhibition at 2000 µM / DPP4 inhibitory activity: synthetic peptides at 2 mM
T1 construct: purchased Sigma–Aldrich Co
Experimental: (§1) The DPP4 inhibitory activity was studied following Hung et al.. All the reagents and samples were dissolved in 0.1 M Tris-HCl buffer, pH 8. First, 25 µL of 1.6 mM GP-pNA was premixed with 25 µL of sample and incubated at 37 °C for 10 min. Then, 50 µL of 0.5 U/µL DPP4 was added. The reaction was set at 37 °C for one hour. 100 µL of 1 M sodium acetate at pH 4 was added to stop the enzymatic reaction. Using a PowerWave XS (Biotek®, Winooski, VT, USA) 96-well microplate reader, the absorbance of pNA, which was generated by the DPP4 and GP-pNA reactions, was measured at 405 nm. DPP4 inhibitory activity was examined by the following formula:(1) DPP4 inhibitory activity%=pNA(no inhibitor)−pNA(inhibitor)/pNA(no inhibitor)×100%,
(§2) The absorbances of pNA obtained in the presence and absence of an inhibitor were referred to as pNA (inhibitor) and pNA (no inhibitor), respectively. The DPP4 half-maximal inhibitory concentration (DPP4 IC50) was determined by plotting at least five logarithmic concentrations of the inhibitor versus their DPP4 inhibition (%) to construct a nonlinear regression.

[2] = target: T1, recombinant human dipeptidyl peptidase-IV (DPP4); test: Peptide inhibition mechanism toward DPP4 (Lineweaver–Burk plot); type: biochemical; conditions: GP-pNA 0.8, 1.6, 3.2 mM
Experimental: as §1
The inhibition mechanism of peptides on DPP4 and ACE was studied using the inhibitory assays described previously. The peptide inhibition mechanism toward DPP4 was identified by generating a Lineweaver–Burk plot using the production rates of pNA in the presence and absence of the inhibitor at GP-pNA concentrations of 0.8, 1.6, and 3.2 mM. Meanwhile, the HA production rate was determined with and without the inhibitor using HHL concentrations of 0.625, 1.25, and 5 mM to assess the peptide inhibition mechanism against ACE through a Lineweaver–Burk plot.

[3] = target: T2, angiotensin-I-converting enzyme (ACE) from rabbit lungs (Oryctolagus cuniculus, UniProt P12822); test: ACE inhibitory activity and IC50 (HHL substrate, HA by RP-HPLC); type: biochemical
T2 construct: angiotensin-I-converting enzyme (ACE) from rabbit lungs; purchased Sigma–Aldrich Co; host or cells: rabbit lung tissue
T2 sequence (P12822 34-1310): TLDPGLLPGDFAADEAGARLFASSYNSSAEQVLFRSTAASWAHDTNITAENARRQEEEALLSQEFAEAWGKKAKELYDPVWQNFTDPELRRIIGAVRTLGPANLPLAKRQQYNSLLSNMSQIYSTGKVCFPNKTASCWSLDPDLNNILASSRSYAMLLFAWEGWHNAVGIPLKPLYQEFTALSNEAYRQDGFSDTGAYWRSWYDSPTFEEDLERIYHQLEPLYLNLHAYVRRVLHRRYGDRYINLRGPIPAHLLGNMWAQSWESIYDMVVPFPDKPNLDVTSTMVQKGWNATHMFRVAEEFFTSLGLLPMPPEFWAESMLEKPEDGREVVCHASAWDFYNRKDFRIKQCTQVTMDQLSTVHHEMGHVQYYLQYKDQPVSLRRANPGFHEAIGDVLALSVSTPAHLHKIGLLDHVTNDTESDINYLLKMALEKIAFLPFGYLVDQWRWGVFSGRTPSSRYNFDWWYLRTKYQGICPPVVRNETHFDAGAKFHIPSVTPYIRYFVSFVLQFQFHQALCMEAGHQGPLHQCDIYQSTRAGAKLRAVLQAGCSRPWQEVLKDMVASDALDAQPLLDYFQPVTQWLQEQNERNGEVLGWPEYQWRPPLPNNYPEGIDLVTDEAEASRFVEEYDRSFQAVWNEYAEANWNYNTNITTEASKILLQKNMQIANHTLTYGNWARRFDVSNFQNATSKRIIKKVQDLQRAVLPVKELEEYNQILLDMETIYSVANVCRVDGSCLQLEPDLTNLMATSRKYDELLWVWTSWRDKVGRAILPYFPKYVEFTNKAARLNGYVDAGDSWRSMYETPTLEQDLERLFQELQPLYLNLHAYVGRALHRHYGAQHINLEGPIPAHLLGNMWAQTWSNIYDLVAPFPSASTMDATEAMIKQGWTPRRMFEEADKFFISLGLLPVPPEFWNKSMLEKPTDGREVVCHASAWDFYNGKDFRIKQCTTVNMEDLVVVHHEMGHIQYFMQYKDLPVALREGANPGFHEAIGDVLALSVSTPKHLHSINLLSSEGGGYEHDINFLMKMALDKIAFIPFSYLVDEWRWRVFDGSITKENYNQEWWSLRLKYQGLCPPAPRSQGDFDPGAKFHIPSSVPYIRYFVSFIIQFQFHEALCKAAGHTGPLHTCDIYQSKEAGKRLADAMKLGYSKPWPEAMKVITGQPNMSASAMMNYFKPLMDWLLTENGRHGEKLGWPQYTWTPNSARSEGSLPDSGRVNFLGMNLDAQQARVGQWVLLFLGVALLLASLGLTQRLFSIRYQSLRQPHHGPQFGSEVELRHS
Experimental: (§3) The ACE inhibitory activity was investigated following Cushman and Cheung, with some modifications. First, 30 µL of 2.5 mM HHL was premixed with 10 µL of the sample at 37 °C for 5 min. Then, 20 µL of 0.05 mU/µL ACE was added. The reaction was maintained at 37 °C for one hour. Afterward, 60 µL of 1 N HCl was added to stop the reaction, and 10 µL of 0.2 µg/µL ferulic acid was used as an internal standard. All the reagents and samples were dissolved in pH 8.3 ACE buffer (760 mM boric acid, 300 mM NaCl, and 200 mM NaOH). Using UV-Vis RP-HPLC (Hitachi High-Tech Co., Tokyo, Japan), the area of HA, as the product of ACE and HHL reactions, was measured at 228 nm. An elution with 23% ACN and 0.1% TFA was used at a flow rate of 1 mL/min for 15 min to separate the analytes. ACE inhibitory activity was determined by the following formula:(2) ACE inhibitory activity%=HA(no inhibitor)−HA(inhibitor)/HA(no inhibitor)×100%
as §2, with “areas” for “absorbances”, “HA acquired” for “pNA obtained”, “HA” for “pNA”, “ACE” for “DPP4”, “(ACE” for “(DPP4”, “performed” for “determined”

[4] = test system: pepsin, trypsin and α-chymotrypsin; test: Stability against simulated gastrointestinal (SGI) digestion (pepsin, then trypsin and α-chymotrypsin; LC-MS); type: in vitro ADME; conditions: pepsin ninety minutes, then α-chymotrypsin and trypsin three hours, 37 °C
Experimental: The peptide stability against SGI digestion was investigated by following the research of Gu and Wu, with some modifications. All the SGI enzyme-to-peptide ratios were fixed at 2%. The synthesized peptides MW4 and VF7 were dissolved in 35 mM NaCl buffer (pH 2.0) and digested by pepsin at 37 °C for ninety minutes, respectively. Next, the pH was adjusted to 7–8. Half of each sample was boiled for 15 min to terminate pepsin digestion. The other half of the sample was treated with trypsin and α-chymotrypsin and the reaction was continued at 37 °C for three hours, followed by boiling for 15 min to stop the reaction. An LC-MS analysis was employed to assess the resistance of peptides to SGI digestion.

[5] = target: T2, angiotensin-I-converting enzyme (ACE) from rabbit lungs; test: Peptide inhibition mechanism toward ACE (Lineweaver–Burk plot); type: biochemical; conditions: HHL 0.625, 1.25, 5 mM
Experimental: as §3
The inhibition mechanism of peptides on DPP4 and ACE was studied using the inhibitory assays described previously. […] Meanwhile, the HA production rate was determined with and without the inhibitor using HHL concentrations of 0.625, 1.25, and 5 mM to assess the peptide inhibition mechanism against ACE through a Lineweaver–Burk plot.

T1 sequence (P27487 whole entry): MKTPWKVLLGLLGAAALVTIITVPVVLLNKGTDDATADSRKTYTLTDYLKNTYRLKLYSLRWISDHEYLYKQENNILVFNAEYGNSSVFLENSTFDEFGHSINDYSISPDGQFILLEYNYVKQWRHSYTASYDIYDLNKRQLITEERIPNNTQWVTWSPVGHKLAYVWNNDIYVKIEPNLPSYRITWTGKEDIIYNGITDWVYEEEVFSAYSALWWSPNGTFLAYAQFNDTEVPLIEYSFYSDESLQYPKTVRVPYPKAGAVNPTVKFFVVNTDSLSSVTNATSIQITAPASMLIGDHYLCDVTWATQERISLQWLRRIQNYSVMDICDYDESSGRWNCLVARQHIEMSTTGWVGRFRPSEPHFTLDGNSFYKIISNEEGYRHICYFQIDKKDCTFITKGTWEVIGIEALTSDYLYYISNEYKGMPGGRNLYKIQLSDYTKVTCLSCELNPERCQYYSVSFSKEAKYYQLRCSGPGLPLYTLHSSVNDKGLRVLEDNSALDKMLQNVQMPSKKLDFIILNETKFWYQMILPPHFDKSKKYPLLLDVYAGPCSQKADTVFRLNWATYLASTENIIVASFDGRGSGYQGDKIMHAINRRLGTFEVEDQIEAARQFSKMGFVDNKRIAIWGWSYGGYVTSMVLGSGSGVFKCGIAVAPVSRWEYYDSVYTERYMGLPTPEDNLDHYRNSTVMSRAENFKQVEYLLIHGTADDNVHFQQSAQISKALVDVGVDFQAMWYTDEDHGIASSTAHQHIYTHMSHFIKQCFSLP

IC50 [1] [µM] | inhibition at 2000 µM [1] [%] | Compound | IC50 (DPP4) [µM] | other results
913.6 ± 6.7 | 71 | LFPNAGY-OH [LY7, LFPNAGY] |  | 
128 ± 1.3 | 97 | CSCC[C@H](N)C(=O)N1CCC[C@H]1C(=O)N[C@@H](Cc1c[nH]cn1)C(=O)N[C@@H](Cc1c[nH]c2ccccc12)C(=O)O [MW4, MPHW] (H-MPHW-OH; N-terminus assumed) |  | DPP4 inhibition mechanism [2]: competitive inhibitors; IC50 [3]: 172 ± 10.6 µM; Stability during simulated gastrointestinal digestion [4]: remained stable; also recorded: neither MW4 nor VF7 was hydrolyzed; ACE inhibition mechanism [5]: competitive inhibitor
151 ± 3.4 | 90 | VPSGAPF-OH [VF7, VPSGAPF] |  | DPP4 inhibition mechanism [2]: competitive inhibitors; inhibition at 200 µM ([3]; 200 µM): 19%; Stability during simulated gastrointestinal digestion [4]: remained stable; also recorded: neither MW4 nor VF7 was hydrolyzed
957 ± 39.2 | 68 | MLPQNF-OH [MF6, MLPQNF] |  | 
2100 ± 55.2 | 49 | CC(C)C[C@H](N)C(=O)N[C@@H](Cc1ccccc1)C(=O)N[C@@H](Cc1ccc(O)cc1)C(=O)O [LY3, LFY] (H-Leu-Phe-Tyr-OH; N-terminus assumed) |  | 

Second part, the compound before the results:

Compound | IC50 [1] [µM] | inhibition at 2000 µM [1] [%] | IC50 (DPP4) [µM] | other results
PAGPF |  |  | 136 | 
LPSW |  |  | 270 | IC50 (ACE): 21 µM
WALPTQSW [peptide derived from Inca nut seed GP hydrolysate] |  |  | 132 | IC50 (ACE): 4.7 µM
ELF [EF3] |  |  |  | DPP4 inhibitory activity [1]: 4%
APLVSW |  |  | 145 | IC50 (ACE): 9.6 µM
RATLPF-OH [RF6, RATLPF] | 1670 ± 45.4 | 56 |  | 
HNLPVL [HL6] |  |  |  | DPP4 inhibitory activity [1]: 12%
PLW [PW3] |  |  |  | DPP4 inhibitory activity [1]: 6%

Source: publication PMC11591893, “Exploring the Antidiabetic and Antihypertensive Potential of Peptides Derived from Bitter Melon Seed Hydrolysate” (Biomedicines, 2024)
